According to patent US20230118517A1, “METHODS OF TREATING MULTIPLE MYELOMA” (Seagen Inc., priority 2020, published 2023):

How the values were obtained:
FcγRIII [1] = assay: FcγRIII signaling ADCC reporter bioassay, Molp-8 target cells; format: cell-based; conditions: Molp-8 bound with antibody dose titrations, +/- DAPT, CD16A-Jurkat effector cells 6:1
Description: (§1) NCI-H929 or Molp-8 MM target cells were incubated with and without 1 μM DAPT for 24 hrs. […] FcγRIII signaling was determined using a surrogate assay as manufacturer describes (Promega ADCC reporter bioassay cat #G9302). Cells were bound with antibody dose titrations+/−GSI for 30 minutes at 37° C. CD16A-Jurkat effector cells were then added with a 6:1 effector-to-target cell ratio. After an overnight incubation, the assay was developed with Bio-Glo and relative luminescence units (RLU) were measured on an Envision plate reader. […] Enhanced signaling is the first step in the primary mechanism of action of SEA-BCMA. This signaling can translate to increased anti-MM cell lysis through ADCC.

NCI-H929 cells = assay: BCMA expression by flow cytometry after GSI incubation, NCI-H929; format: cell-based; conditions: NCI-H929, 1 μM DAPT for 24 hrs vs untreated
FcγRIII [2] = assay: FcγRIII signaling ADCC reporter bioassay, NCI-H929 target cells; format: cell-based; conditions: NCI-H929 bound with antibody dose titrations, +/- DAPT, CD16A-Jurkat effector cells 6:1
Description: as §1

Molp-8 cells = assay: BCMA expression by flow cytometry after GSI incubation, Molp-8; format: cell-based
NF-κB p65 = NF-κB p65 activity ELISA on nuclear extract; format: cell-based; conditions: NCI-H929, serum-starved, 0.2 μM Nirogacestat 16 hrs, +/- 1 μg/ml APRIL
Description: The secondary mechanism of action of SEA-BCMA is to block BCMA proliferative cell signaling. Increased BCMA from GSI treatment is expected to induce increased BCMA signaling. Therefore, the block of this enhanced signaling by SEA-BCMA was tested. BCMA-expressing NCI-H929 cells were serum-starved with and without 0.2 μM Nirogacestat (purchased from SelleckChem) for 16 hrs. Cells were then bound with and without 20 μg/mL SEA-BCMA and incubated with and without 1 μg/ml recombinant human APRIL (R&D Systems) for 20 minutes at 37° C. in the presence or absence of 0.2 μM Nirogacestat. 1 μg of nuclear extract was assayed in duplicate for NF-κB p65 activity by ELISA (TransAM NFκB Chemi p65, Active Motif).

U266 = assay: BCMA expression by flow cytometry after Nirogacestat, U266; format: cell-based; conditions: U266, after incubation with Nirogacestat (FIG. 9A)
[3] = tested on: MM1R myeloma target cells; assay: PBMC-mediated MM1R target cell killing, second experiment (PBMC pretreated 5 days, 0.5 μM pomalidomide); format: cell-based; conditions: PBMC:MM1R 10:1, overnight, with or without 0.5 μM pomalidomide
Description: (§2) Experiments were performed to test whether SEA-BCMA combines effectively with pomalidomide in vitro by combining PBMC effector cells with MM1R target cells treated with both pomalidomide and SEA-BCMA or antibody controls. The first experiment (FIG. 12A) benchmarks against MM standard of care elotuzumab and nonfucosylated parent BCMA antibody. The second experiment (FIG. 12B) benchmarks against MM standard of care daratumumab. MM1R target cells express 15,000 copies of BCMA, 12,000 copies of CS1 (elotuzumab target), and 36,000 copies of CD38 (daratumumab target).
In the second experiment (FIG. 12B), normal donor PBMCs of the FcγRIII V/F genotype were treated with or without 0.5 μM pomalidomide (APEx Bio, cat #A4211) for 5 days. The resulting PBMCs were then washed and mixed with CFSE (Invitrogen cat #V12883) labeled MM1R myeloma target cells at an effector-to-target cell ratio of 10:1. The mixture was then treated with a dose range of the following antibodies: SEA-BCMA, daratumumab, or non-binding hIgG1k antibody control (Sigma cat #15154) with or without 0.5 μM pomalidomide (APEx Bio, cat #A4211) and incubated overnight. Percentage live MM1R cells were then determined using the viability dye 7-AAD (BD Biosciences, cat #559925) by flow cytometry.

[4] = tested on: MM1R myeloma target cells; assay: PBMC-mediated MM1R target cell killing, first experiment (48 hrs, 3 μM pomalidomide); format: cell-based; conditions: PBMC:MM1R 10:1, 48 hrs, with or without 3 μM pomalidomide
Description: as §2
In the first experiment (FIG. 12A), normal donor PBMCs of the FcγRIII V/F genotype were mixed with CFSE (Invitrogen cat #V12883) labeled MM1R myeloma target cells at an effector-to-target cell ratio of 10:1. The mixture was treated with a dose range of the following antibodies: SEA-BCMA, elotuzumab, WT-BCMA (fucosylated parent Ab), or non-binding hIgG1k antibody control (Sigma cat #15154) with or without 3 μM pomalidomide (APEx Bio, cat #A4211). After 48 hrs, the % live MM1R cells were then determined using the viability dye 7-AAD (BD Biosciences, cat #559925) by flow cytometry.

[5] = target: T1, human BCMA (B-cell maturation antigen) (human, UniProt Q02223 1-184); assay: flow cytometry on MM cells from bone marrow aspirates
T1 construct: Endogenous BCMA on MM1R and NCI-H929 cell lines and on patients' multiple myeloma cells; also called membrane BCMA; cell-surface BCMA
T1 sequence: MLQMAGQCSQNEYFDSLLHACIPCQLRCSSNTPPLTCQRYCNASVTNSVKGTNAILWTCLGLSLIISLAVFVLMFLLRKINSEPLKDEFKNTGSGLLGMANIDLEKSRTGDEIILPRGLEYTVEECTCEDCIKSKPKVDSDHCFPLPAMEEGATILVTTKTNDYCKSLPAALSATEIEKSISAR

[6] = target: T1, human BCMA (B-cell maturation antigen); assay: in vitro cell binding capacity assay, flow cytometry on MM1R cells

## C[C@H](NC(=O)Cc1cc(F)cc(F)c1)C(=O)N[C@H](C(=O)OC(C)(C)C)c1ccccc1 [DAPT]
FcγRIII [1]
  FcγRIII signaling: increased FcγRIII signaling
NCI-H929 cells
  BCMA expression: increased BCMA expression
FcγRIII [2]
  FcγRIII signaling: increased FcγRIII signaling
Molp-8 cells; Molp-8, 1 μM DAPT for 24 hrs vs untreated
  BCMA expression: increased BCMA expression

## CCC[C@H](N[C@H]1CCc2cc(F)cc(F)c2C1)C(=O)Nc1cn(C(C)(C)CNCC(C)(C)C)cn1 [Nirogacestat]
NF-κB p65
  NF-κB signaling (p65 activity, RLU): increased NF-κB signaling
U266
  BCMA expression: increased BCMA expression
Molp-8 cells; Molp-8, Nirogacestat treated vs untreated (FIG. 9A legend)
  BCMA expression: increased BCMA expression

## Daratumumab: anti-CD38 antibody, MM standard of care [reference compound]
[3]
  MM1R target cell killing (percentage live MM1R cells): less activity than SEA-BCMA

## Elotuzumab: MM standard of care antibody; target CS1 [reference compound]
[4]
  MM1R target cell killing (% live MM1R cells): no impact on cells unless pomalidomide was added

B1: APRIL (a proliferation-inducing ligand) (ligand, human, UniProt O75888 105-250, looked up)
chain: AVLTQKQKKQHSVLHLVPINATSKDDSDVTEVMWQPALRRGRGLQAQGYGVRIQDAGVYLLYSQVLFQDVTFTMGQVVSREGQGRQETLFRCIRSMPSHPDRAYNSCYSAGVFHLHQGDILSVIIPRARAKLNLSPHGTFLGFVKL
[5]
  binding result: binds

B2: SEA-BCMA (antibody, human IgG1, kappa, V domains shown)
VH: QVQLVQSGAEVKKPGASVKLSCKASGYTFTDYYIHWVRQAPGQGLEWIGYINPNSGYTNYAQKFQGRATMTADKSINTAYVELSRLRSDDTAVYFCTRYMWERVTGFFDFWGQGTMVTVSS
VL: DIQMTQSPSSVSASVGDRVTITCLASEDISDDLAWYQQKPGKAPKVLVYTTSSLQSGVPSRFSGSGSGTDFTLTISSLQPEDFATYFCQQTYKFPPTFGGGTKVEIKR
notes: also called non-fucosylated monoclonal anti-BCMA antibody
[6]
  binding result: binds
